Reference: patent publication US5610025A, “Inhibition of interfering endogenous enzyme activity in assays of biological fluids” (Actimed Laboratories, Inc., priority 1993, dated 1997)
“And” between values parts separate entries of the source, which are not always exact repeats. Equal entries are not always repeated. Structures can show the parent of a compound that is named as a salt.

Legend:
Format in all cases: biochemical
catalase [1] = target: T1, catalase (Homo sapiens, UniProt P04040); experiment: Catalase inhibitor screening, aqueous hydrogen peroxide samples with added catalase, dye indicator/peroxidase system, absorbance at 514 nm
T1 sequence (P04040 2-527 limits assumed): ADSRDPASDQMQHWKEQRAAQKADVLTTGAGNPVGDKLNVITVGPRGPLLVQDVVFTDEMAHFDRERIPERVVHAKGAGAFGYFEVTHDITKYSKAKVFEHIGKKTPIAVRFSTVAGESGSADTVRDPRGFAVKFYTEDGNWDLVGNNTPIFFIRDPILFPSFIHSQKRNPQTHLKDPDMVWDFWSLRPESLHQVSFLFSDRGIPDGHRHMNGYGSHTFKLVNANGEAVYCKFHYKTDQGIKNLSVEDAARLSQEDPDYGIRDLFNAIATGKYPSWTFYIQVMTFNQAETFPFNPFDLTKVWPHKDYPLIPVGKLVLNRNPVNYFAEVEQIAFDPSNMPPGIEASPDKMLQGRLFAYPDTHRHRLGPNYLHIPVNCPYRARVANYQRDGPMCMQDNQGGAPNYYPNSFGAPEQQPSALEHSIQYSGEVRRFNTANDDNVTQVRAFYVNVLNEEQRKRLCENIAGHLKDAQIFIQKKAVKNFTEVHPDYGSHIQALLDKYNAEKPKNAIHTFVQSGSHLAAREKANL

catalase [2] = target: T1, catalase; experiment: Catalase inhibitor screening, aqueous cholesterol sample 50 mg/dL with catalase, reporter system Primaquine/MBTH; conditions: aqueous cholesterol 50 mg/dL with catalase, inhibitor 0.5 mM
Method: (§1) The inhibitors were added along with the extra catalase, and spectrophotometric measurements at 514 nm were obtained.
(§2) The percent recovery of absorbance is defined as follows: [formula]
(§3) In the following tables, the concentrations of inhibitor substances are expressed as the final concentration in the reaction system after accounting for dilution factors.

catalase [3] = target: T1, catalase; experiment: Catalase inhibitor screening, plasma cholesterol sample with catalase, reporter system Primaquine/MBTH; conditions: inhibitor 0.5 mM
Method: as §1, §2, §3

O=[N+]([O-])[O-].O=[N+]([O-])[O-].[Cu+2] [Cupric nitrate]
% Recovery (of absorbance) (catalase [1]): 85%

CCO [Ethanol]
% Recovery (of absorbance) (catalase [1]): 6%

Cl.NO [Hydroxylamine HCl]
% Recovery (of absorbance) (catalase [2]): 98% | % Recovery (of absorbance) (catalase [1]; HCl): 96% and 95% and 91% and 92% | % Recovery (of absorbance) (catalase [3]): 98%

NO.NO.O=S(=O)(O)O [Hydroxylamine sulfate]
% Recovery (of absorbance) (catalase [2]): 96% | % Recovery (of absorbance) (catalase [1]): 99% and 95% and 90% and 97% and 91% | % Recovery (of absorbance) (catalase [3]): 99%

CO [Methanol]
% Recovery (of absorbance) (catalase [1]): 7%

[Cl][Ni][Cl] [Nickel (II) chloride]
% Recovery (of absorbance) (catalase [1]): 60%

Oc1cccc(O)c1 [Resorcinol]
% Recovery (of absorbance) (catalase [1]; peroxide with catalase, inhibitor concentration 0.5 mM): 50% | % Recovery (of absorbance) (catalase [1]; peroxide with catalase, inhibitor concentration 5 mM): 57% | % Recovery (of absorbance) (catalase [1]; peroxide with catalase, inhibitor concentration 40 mM): 79%

[N-]=[N+]=[N-] [Sodium azide]
effectiveness as inhibitor of catalase activity (in words) (catalase [1]): most effective inhibitors of catalase activity

[F-].[Na+] [Sodium fluoride]
% Recovery (of absorbance) (catalase [1]): 7%

O=CO [Sodium formate]
% Recovery (of absorbance) (catalase [1]): 8%

O=NO [Sodium nitrite]
% Recovery (of absorbance) (catalase [1]): 30%
